The values that follow come from the NIST ThermoML archive (doi:10.1016/j.jct.2014.12.017).

Each structure is given as a SMILES string. ± gives the expanded uncertainty stated by the source.

The nature of the data set: wn = mass fraction of the nth substance listed. The following applies: 297.15 K; 101 kPa; Liquid; Alternating current cell with electrodes; w1 = 0.1.
On to `CCCCn1cc[n+](C)c1.[Cl-]` [1-butyl-3-methylimidazolium chloride] + O, for which the electrical conductivity came to 3.43 ± 0.03 S/m.

With `CCCCn1cc[n+](C)c1.[Br-]` [1-butyl-3-methylimidazolium bromide] + O, the electrical conductivity came to 2.87 ± 0.03 S/m.

For the compound `CCCCn1cc[n+](C)c1.[O-][Cl+3]([O-])([O-])[O-]` [1-butyl-3-methylimidazolium perchlorate] + O, the electrical conductivity was 2.18 ± 0.02 S/m.

Take `CCCCn1cc[n+](C)c1.O=S(=O)([O-])C(F)(F)F` [1-butyl-3-methylimidazolium trifluoromethanesulfonate] + O: the electrical conductivity is 1.38 ± 0.014 S/m.

Turning to `CCCCn1cc[n+](C)c1.COS(=O)(=O)[O-]` [1-butyl-3-methylimidazolium methyl sulfate] + O, the electrical conductivity is 1.727 ± 0.017 S/m.

For `CCCCn1cc[n+](C)c1.N#CN=C=[N-]` [1-butyl-3-methylimidazolium dicyanamide] + O, the electrical conductivity turned out to be 1.9 ± 0.019 S/m.

As for `Cn1cc[n+](CCO)c1.[Br-]` [3-(2-hydroxyethyl)-1-methyl-1H-imidazolium bromide] + O, the electrical conductivity stood at 3.58 ± 0.04 S/m.

Take `C[n+]1ccn(CCO)c1.[Cl-]` [1-(2-hydroxyethyl)-3-methyl-1H-imidazolium chloride] + O: the electrical conductivity was determined as 4.19 ± 0.04 S/m.

In the case of `CCCCn1cc[n+](C)c1.O=S(=O)([O-])O` [1-butyl-3-methylimidazolium hydrogen sulfate] + O, the electrical conductivity amounted to 7.63 ± 0.08 S/m.
